A word on the Kd: it is the free concentration of one partner at which half of the binding sites on the other are occupied at equilibrium, for simple one-to-one binding.

The target in this assay is Rv0158 (Mycobacterium tuberculosis, UniProt O53641). In words: biochemical.
Sequence of Rv0158 (O53641 entry or part of it): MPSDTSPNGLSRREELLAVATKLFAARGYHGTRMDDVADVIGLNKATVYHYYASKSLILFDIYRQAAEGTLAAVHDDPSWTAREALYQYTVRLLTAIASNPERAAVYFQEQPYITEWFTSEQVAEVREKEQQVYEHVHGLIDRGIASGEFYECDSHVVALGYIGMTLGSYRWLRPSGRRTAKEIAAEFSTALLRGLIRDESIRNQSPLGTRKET
`CCCCCCCCCCCC(=O)SCCNC(=O)CCNC(=O)[C@H](O)C(C)(C)COP(=O)(O)OP(=O)(O)OC[C@H]1O[C@@H](n2cnc3c(N)ncnc32)[C@H](O)[C@@H]1OP(=O)(O)O` [C12-CoA] showed a Kd of 1100 ± 600 nM.

For the compound `CCCCCCCCCCCCCCCC(=O)SCCNC(=O)CCNC(=O)[C@H](O)C(C)(C)COP(=O)(O)OP(=O)(O)OC[C@H]1O[C@@H](n2cnc3c(N)ncnc32)[C@H](O)[C@@H]1OP(=O)(O)O` [C16-CoA], the Kd amounted to 1800 ± 500 nM.

On to `CCCCCCCCCCCCCCCCCC(=O)SCCNC(=O)CCNC(=O)[C@H](O)C(C)(C)COP(=O)(O)OP(=O)(O)OC[C@H]1O[C@@H](n2cnc3c(N)ncnc32)[C@H](O)[C@@H]1OP(=O)(O)O` [C18-CoA], for which the Kd amounted to 2800 ± 800 nM.

As for `CCCCCCCCCC(=O)SCCNC(=O)CCNC(=O)[C@H](O)C(C)(C)COP(=O)(O)OP(=O)(O)OC[C@H]1O[C@@H](n2cnc3c(N)ncnc32)[C@H](O)[C@@H]1OP(=O)(O)O` [Decanoyl-CoA], the Kd was found to be 6400 ± 1200 nM.

On to `CC(C)(COP(=O)(O)OP(=O)(O)OC[C@H]1O[C@@H](n2cnc3c(N)ncnc32)[C@H](O)[C@@H]1OP(=O)(O)O)[C@@H](O)C(=O)NCCC(=O)NCCSC(=O)CC(=O)O` [Malonyl-CoA], for which binding was characterised by a dissociation constant (Kd) of 2400 ± 1000 nM.

For the compound `CC(C(=O)O)C(=O)SCCNC(=O)CCNC(=O)[C@H](O)C(C)(C)COP(=O)(O)OP(=O)(O)OC[C@H]1O[C@@H](n2cnc3c(N)ncnc32)[C@H](O)[C@@H]1OP(=O)(O)O` (stereo partly drawn) [Methylmalonyl-CoA], the Kd is 900 ± 300 nM.

These data come from paper PMC10501769 (eLife, 2023).
